Experimental findings from ChEMBL document CHEMBL1201862, “PubChem BioAssay data set” (2004) are described below.

Test systems include HCT-15; IGROV-1; KM12; LOX IMVI; MCF7; MDA-MB-231; NCI-H460; PC-3; SF-268; SK-MEL-2; SNB-19; SW-620; TK-10; UACC-257; Hs-578T; RXF 393.
Common to all, as to experiment: growth of human tumour cells (NCI), 48 h

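Following 48 hours of exposure in 96-well plates, responses at five concentrations were used to interpolate endpoints linearly. Abbreviation: GI50, concentration required for 50% inhibition of growth.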 Activity calls are given as the source filed them. Cut-off read from the data, not from the text of the source: active = GI50 up to about 1.1 µM and inactive = higher.

As for `CC(C)c1nccn1Cc1ccc(Cl)cc1Cl`, the GI50 in the assay with HCT-15 was 42.4 µM; with IGROV-1 it was > 100 µM (inactive); in the assay on KM12 it was 30.5 µM (inactive); with LOX IMVI, 43.6 µM (inactive); with MCF7, 34.1 µM (inactive); in the assay with MDA-MB-231, 81.5 µM (inactive). Besides, the GI50 was 34 µM (inactive) in the assay with NCI-H460; 46.5 µM (inactive) in the assay on PC-3; 76.9 µM (inactive) in the assay on SF-268; 74.3 µM (inactive) in the assay on SK-MEL-2; 48.5 µM (inactive) in the assay with SNB-19; 49.1 µM (inactive) in the assay with SW-620. The results for the GI50 in the assay with TK-10 and in the assay with UACC-257 were 37.6 µM (inactive) and 17.7 µM (inactive), respectively.
Regarding `Oc1cc(Cl)cc2cc(Br)cnc12`, the GI50 is 0.771 µM in the assay with HCT-15; 4.62 µM (inactive) in the assay on Hs-578T; 2.92 µM (inactive) in the assay with IGROV-1; 4.69 µM (inactive) in the assay with KM12; 0.463 µM (active) with LOX IMVI; 3.1 µM (inactive) with MCF7. Moreover, the GI50 was 2.56 µM (inactive) in the assay with MDA-MB-231; 1.99 µM (inactive) in the assay on NCI-H460; 2.57 µM (inactive) with PC-3; 2.29 µM (inactive) with RXF 393; 1.59 µM (inactive) with SF-268; 4.1 µM (inactive) in the assay on SNB-19. In addition, the GI50 is 3.96 µM (inactive) with SW-620, 41.3 µM (inactive) in the assay with TK-10 and 2.63 µM (inactive) in the assay on UACC-257.
For `O=C(Nc1nc2c(=O)[nH]cnc2s1)c1ccccc1`, the GI50 was over 100 µM with HCT-15; 61.5 µM (inactive) in the assay with Hs-578T; 71.8 µM (inactive) in the assay on IGROV-1; 64 µM (inactive) in the assay with LOX IMVI; 45.6 µM (inactive) in the assay with MCF7; 41.5 µM (inactive) with NCI-H460. In addition, the GI50 was > 100 µM (inactive) in the assay on PC-3; 55.7 µM (inactive) in the assay on RXF 393; > 100 µM (inactive) in the assay with SF-268; > 100 µM (inactive) in the assay on SK-MEL-2; > 100 µM (inactive) with SNB-19; > 100 µM (inactive) in the assay with SW-620. Also, the GI50 in the assay with TK-10 is 68.9 µM (inactive); in the assay with UACC-257 it was > 100 µM (inactive).
Consider `Cc1ccc(S(=O)(=O)N(c2ccccc2F)C2CCCCC2O)cc1` (stereo not given), for which the GI50 with HCT-15 was 55 µM; in the assay on Hs-578T, 33 µM (inactive); in the assay with KM12 it was 33.1 µM (inactive); with LOX IMVI it was 38.8 µM (inactive); with MCF7 it was 21.7 µM (inactive); in the assay with MDA-MB-231 it was 77.6 µM (inactive). Besides, the GI50 is 45.9 µM (inactive) in the assay with NCI-H460; 35.4 µM (inactive) with PC-3; 38 µM (inactive) in the assay on SF-268; 29.4 µM (inactive) in the assay with SK-MEL-2; > 100 µM (inactive) with SNB-19; 64.4 µM (inactive) with SW-620. Further, the results for the GI50 in the assay with TK-10 and with UACC-257 were 97.1 µM (inactive) and 0.214 µM (active), respectively.
For the molecule `O=C1OC(c2ccccc2Br)=N/C1=C/c1ccccc1`, the GI50 is 29.9 µM in the assay on HCT-15; 31.3 µM (inactive) in the assay on Hs-578T; 39.4 µM (inactive) in the assay with IGROV-1; 19 µM (inactive) in the assay on KM12; 21.7 µM (inactive) in the assay on LOX IMVI; 57.1 µM (inactive) in the assay on MCF7. Also, the GI50 is 40.7 µM (inactive) in the assay on MDA-MB-231; 42.5 µM (inactive) in the assay on NCI-H460; > 100 µM (inactive) in the assay on PC-3; 31.6 µM (inactive) in the assay on SF-268; 18.8 µM (inactive) with SK-MEL-2; 24.9 µM (inactive) with SNB-19. The GI50 was 42.9 µM (inactive) in the assay on SW-620, 32.8 µM (inactive) in the assay with TK-10 and > 100 µM (inactive) in the assay on UACC-257.
As for `CC1(C)C2CCC1(C)[C@H](O)[C@H]2Nc1cc(C(F)(F)F)cc(C(F)(F)F)c1` (stereo not given in full), the GI50 in the assay on HCT-15 was 3.49 µM; with IGROV-1, 4.74 µM (inactive); with KM12, 2.88 µM (inactive); in the assay with LOX IMVI, 3 µM (inactive); in the assay on MCF7, > 100 µM (inactive); with MDA-MB-231, 4.53 µM (inactive). Besides, the GI50 in the assay with NCI-H460 is 3.71 µM (inactive); in the assay with PC-3, 2.47 µM (inactive); with RXF 393 it was 2.85 µM (inactive); in the assay with SF-268 it was 3.14 µM (inactive); with SK-MEL-2 it was 2.35 µM (inactive); in the assay with SNB-19, 4.48 µM (inactive). Further, the GI50 was 3.36 µM (inactive) in the assay on SW-620, 3.15 µM (inactive) in the assay with TK-10 and 3.78 µM (inactive) in the assay with UACC-257.
Turning to `CC1=CCC2CC1C(C(=O)c1c[nH]c3ccccc13)=NC2(C)C` (stereo not given), the GI50 was 45.2 µM in the assay on HCT-15; 41.9 µM (inactive) in the assay with Hs-578T; > 100 µM (inactive) with IGROV-1; 52.4 µM (inactive) in the assay with KM12; 80.9 µM (inactive) in the assay with LOX IMVI; 54.6 µM (inactive) with MCF7. The GI50 in the assay with MDA-MB-231 is 51.9 µM (inactive); in the assay on NCI-H460, 52.4 µM (inactive); with PC-3, 30.8 µM (inactive); in the assay with SF-268, > 100 µM (inactive); in the assay with SNB-19, > 100 µM (inactive); in the assay on SW-620, 76 µM (inactive). The GI50 with UACC-257 was 27.4 µM (inactive).
`C=C(C)OCOCCOC`: the GI50 in the assay on HCT-15 was over 100 µM; with Hs-578T it was > 100 µM (inactive); with IGROV-1 it was > 100 µM (inactive); in the assay on KM12 it was > 100 µM (inactive); in the assay with LOX IMVI, > 100 µM (inactive); in the assay with MCF7, > 100 µM (inactive). The GI50 in the assay with MDA-MB-231, in the assay on NCI-H460, in the assay with PC-3, with SF-268, in the assay with SK-MEL-2 and with SNB-19 was > 100 µM (inactive) throughout. In addition, the GI50 with SW-620, with TK-10 and in the assay on UACC-257 was > 100 µM (inactive) in each case.
As to `CSc1nc2c(c(=O)n1C)N=C(c1ccc(Cl)cc1)CC(c1ccccc1)N2` (stereo not given), the GI50 is 18.3 µM (inactive) in the assay on IGROV-1; 15.7 µM (inactive) with KM12; 20.6 µM (inactive) with LOX IMVI; 14.2 µM (inactive) in the assay on MCF7; 11.9 µM (inactive) with MDA-MB-231; 24.3 µM (inactive) in the assay with PC-3. The GI50 in the assay on RXF 393 was 39.4 µM (inactive); in the assay with SK-MEL-2 it was 13.9 µM (inactive); in the assay on SNB-19, 36.3 µM (inactive); with SW-620, 49 µM (inactive); in the assay on UACC-257, 22.6 µM (inactive).
For the molecule `CSCCC(NC(=O)OCc1ccccc1)NC(=O)OCc1ccccc1`, the GI50 with HCT-15 is over 100 µM; in the assay on Hs-578T, > 100 µM (inactive); with IGROV-1 it was > 100 µM (inactive); with LOX IMVI, > 100 µM (inactive); in the assay on MDA-MB-231, > 100 µM (inactive); in the assay with NCI-H460 it was > 100 µM (inactive). For the same molecule, the GI50 in the assay on PC-3, in the assay with SK-MEL-2, in the assay on SNB-19, in the assay on SW-620, with TK-10 and with UACC-257 was > 100 µM (inactive) each time.
In the case of `COc1ccc(NC2Oc3cc4c(cc3C(c3cc(OC)c(O)c(OC)c3)C2C)OCO4)cc1` (stereo not given), the GI50 in the assay on HCT-15 was 1.79 µM; in the assay with IGROV-1 it was 5.55 µM (inactive); in the assay on KM12, 4.78 µM (inactive); in the assay on MCF7, 5.71 µM (inactive); with MDA-MB-231, 2.65 µM (inactive); in the assay with NCI-H460, 3.83 µM (inactive). Besides, the GI50 with PC-3 was 4.13 µM (inactive); in the assay on RXF 393, 7.73 µM (inactive); with SF-268, 14.7 µM (inactive); in the assay with SK-MEL-2, 2.25 µM (inactive); in the assay on SNB-19, 21.4 µM (inactive); in the assay with SW-620 it was 3.5 µM (inactive). The GI50 is 2.23 µM (inactive) in the assay with TK-10 and 15.1 µM (inactive) with UACC-257.
Consider `C=C1N(C)c2ccc(S(=O)(=O)c3ccc4c(c3)C(C)(C)C(=C)N4C)cc2C1(C)C`, for which the GI50 in the assay with HCT-15 was 59.7 µM; in the assay with Hs-578T it was 24.3 µM (inactive); in the assay on IGROV-1, 27.3 µM (inactive); in the assay on KM12, 45.5 µM (inactive); in the assay on MCF7 it was 29 µM (inactive); in the assay on MDA-MB-231 it was 33.6 µM (inactive). In addition, the GI50 with NCI-H460 is 49.8 µM (inactive); with PC-3 it was 35.5 µM (inactive); with SF-268, 36.6 µM (inactive); in the assay with SK-MEL-2 it was 41.3 µM (inactive); in the assay on SNB-19 it was 39.2 µM (inactive); in the assay on SW-620 it was 45 µM (inactive). The GI50 with TK-10 is 36.1 µM (inactive); in the assay on UACC-257, 26.4 µM (inactive).
In the case of `CC(C)=C[C@@H]1C[C@H](C)[C@H]2CC[C@H](C)[C@H]3C(=O)C(O)=C(C)C(=O)[C@]123`, the GI50 with HCT-15 is over 100 µM; in the assay with Hs-578T, > 100 µM (inactive); in the assay with IGROV-1 it was > 100 µM (inactive); with KM12 it was > 100 µM (inactive); in the assay on LOX IMVI it was > 100 µM (inactive); in the assay with MCF7, > 100 µM (inactive). For the same molecule, the GI50 with MDA-MB-231 was > 100 µM (inactive); in the assay on NCI-H460, > 100 µM (inactive); in the assay on PC-3 it was 27.4 µM (inactive); in the assay on SF-268, > 100 µM (inactive); with SNB-19, > 100 µM (inactive); in the assay with SW-620, > 100 µM (inactive). Besides, the GI50 in the assay with TK-10 and in the assay with UACC-257 was > 100 µM (inactive) throughout.
Turning to `O=S(=O)(N/C(=N\O)Nc1ccc(Cl)cc1)c1cc2ccccc2s1`, the GI50 was 18 µM in the assay on HCT-15; 18.7 µM (inactive) in the assay with Hs-578T; 13.5 µM (inactive) in the assay on IGROV-1; 22.3 µM (inactive) with KM12; 17.5 µM (inactive) with LOX IMVI; 17.3 µM (inactive) in the assay with MDA-MB-231. The GI50 in the assay with NCI-H460 was 31.8 µM (inactive); in the assay with PC-3, 14.5 µM (inactive); in the assay on RXF 393 it was 15.1 µM (inactive); with SF-268, 15.2 µM (inactive); with SK-MEL-2, 15.8 µM (inactive); in the assay with SNB-19, 17 µM (inactive). The GI50 in the assay on SW-620 is 23.7 µM (inactive); with TK-10 it was 19.4 µM (inactive); with UACC-257, 22 µM (inactive).
